# Measurements taken from PubChem BioAssay (NCI).
# “And” between values parts separate entries of the source, which are not always exact repeats. Equal entries are not always repeated.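 Briefly, cells in 96-well plates were exposed to five compound concentrations for 48 h, and endpoints were estimated by linear interpolation. Here, GI50 denotes the concentration required for 50% inhibition of growth. At the TGI there is no net growth.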
# Assays:
# Assay in all cases: NCI tumour cell line growth inhibition, 48 h
# T-47D breast = test system: T-47D breast
# MDA-MB-435 = test system: MDA-MB-435
# MDA-MB-231 breast = test system: MDA-MB-231 breast
# DU-145 prostate = test system: DU-145 prostate
# BT-549 breast = test system: BT-549 breast
# HOP-62 NSCLC = test system: HOP-62 NSCLC
Structure (SMILES),GI50 (T-47D breast),TGI (T-47D breast),GI50 (MDA-MB-435),TGI (MDA-MB-435),GI50 (MDA-MB-231 breast),TGI (MDA-MB-231 breast),GI50 (DU-145 prostate),TGI (DU-145 prostate),GI50 (BT-549 breast),TGI (BT-549 breast),GI50 (HOP-62 NSCLC),TGI (HOP-62 NSCLC)
CCNCCNc1cc(-c2ccc(C(F)(F)F)cc2)c(C#N)c2nc3ccccc3n12,0.79 µM,2.6 µM,1.28 µM,2.56 µM,1.16 µM,2.52 µM,1.44 µM,2.78 µM,1.59 µM,3.16 µM,1.56 µM,3.18 µM
C=C(C)[C@@H]1CC[C@]2(CO)CC[C@]3(C)[C@H](CC[C@@H]4[C@@]5(C)C=C(C#N)C(=O)C(C)(C)[C@@H]5CC[C@]43C)[C@@H]12,1.12 µM,5.79 µM,,,1.56 µM,4.82 µM,1.97 µM,5.75 µM,2.13 µM,6.18 µM,1.74 µM,3.85 µM
COc1ccc(C(=O)c2cc(OC)c(OC)c(OC)c2)cc1/C=C/C(=O)c1ccc(F)cc1,3.54 µM,27.8 µM,2.88 µM,13.6 µM,4.72 µM,84.5 µM,7.72 µM,21 µM,3.27 µM,13.1 µM,3.92 µM,26.7 µM
COc1ccc(-c2nc3ccccn3c2/C=C/C(=O)c2cc(OC)c(OC)c(OC)c2)cc1OC,3.01 µM,> 100 µM,,,3.28 µM,45 µM,2.63 µM,8.14 µM,0.899 µM,3.2 µM,4.42 µM,30 µM
COc1ccc(-c2cc(-c3cc(C)cc(Br)c3O)no2)cc1,,34 µM,,> 100 µM,,64.6 µM,,36.2 µM,,57.1 µM,,41.9 µM
COc1cc2ncnc(-n3ncc4cc(NC(=O)Nc5ccccc5)ccc43)c2cc1OC,0.183 µM,1.37 µM,1.4 µM,33.9 µM,1.39 µM,4.92 µM,0.867 µM,11.4 µM,1.55 µM,12 µM,1.3 µM,
NS(=O)(=O)c1ccc(-c2ccc3c(NC(=O)C4CC4)n[nH]c3c2)cc1,> 25 µM,> 25 µM,> 25 µM,> 25 µM,> 25 µM,> 25 µM,> 25 µM,> 25 µM,> 25 µM,> 25 µM,> 25 µM,> 25 µM
Nc1nc(Nc2cccnc2)sc1C(=O)c1ccccc1F,1.83 µM,11.9 µM,3.74 µM,24.3 µM,3.47 µM,> 100 µM,3.38 µM,> 100 µM,1.64 µM,6.54 µM,6.67 µM,> 93.8 µM
COC(=O)Nc1nc2ccc(C3(c4ccc(F)cc4)OCCO3)cc2[nH]1,,,0.0436 µM,0.238 µM,0.598 µM,99.5 µM,0.363 µM,> 100 µM,2.77 µM,> 100 µM,3.24 µM,> 100 µM
CC1=CC(=O)C=CC1=O,11.9 µM and 2.54 µM,36.1 µM and 6.78 µM,12.3 µM,25.4 µM,16.2 µM,30.4 µM,17.3 µM and 17.8 µM,31 µM and 32.4 µM,16.2 µM and 14.9 µM,40 µM and 28.3 µM,35.9 µM and 25.3 µM,75.3 µM
Cc1ccc(N=C/C=C(\Nc2ccc(C)cc2)c2ccc(Cl)cc2)cc1,> 100 µM,> 100 µM,2.82 µM,12 µM,11.2 µM,46.6 µM,15.6 µM,38.4 µM,11.2 µM,29.2 µM,14.9 µM,35.9 µM
COc1ccc(-c2[nH]c3ccc(OC)cc3c2/C=C(\C#N)S(=O)(=O)c2ccccc2)cc1,0.901 µM,12.1 µM,0.272 µM,> 100 µM,1.32 µM,> 30.7 µM,0.785 µM,> 31.4 µM,4.51 µM,> 100 µM,2.97 µM,48.1 µM
CCc1nc2cc(F)c(/C=C/C(=O)NO)cc2c(=O)n1CCc1ccccc1,0.22 µM,0.853 µM,0.445 µM,11.5 µM,0.376 µM,15.3 µM,0.358 µM,10.5 µM,0.377 µM,12.6 µM,0.291 µM,1.74 µM
NC(=O)c1cc(Cl)ccc1NC(=O)/C=C/c1ccccc1,4.8 µM,> 100 µM,0.618 µM,3.53 µM,2.6 µM,> 100 µM,3.3 µM,> 24.4 µM,4.66 µM,> 100 µM,7.79 µM,> 41.6 µM
CC12OC(C(=O)C13CC3)C1C(=O)c3ccc4c(ccc5ccccc54)c3C(=O)C12 (stereo unspecified),25.7 µM,98.9 µM,35.2 µM,> 100 µM,13 µM,77.9 µM,,,29.6 µM,55.9 µM,28.9 µM,99.8 µM
COc1cc2c3c(n(CCCN)c(=O)c2cc1OC)-c1ccc(C#N)cc1C3=O,13.2 µM,34.9 µM,18.6 µM,39.9 µM,14.3 µM,29.3 µM,12.3 µM,25.5 µM,,,4.01 µM,19.1 µM
Cc1ccc(NC(=O)c2cccc(C(C)(C)C#N)c2)cc1Nc1ccc2ncn(C)c(=O)c2c1,3.66 µM,> 100 µM,0.0625 µM,> 100 µM,< 0.0239 µM,> 29 µM,5.66 µM,> 100 µM,5.17 µM,> 100 µM,1.11 µM,> 100 µM
N#Cc1cc(-c2cc3ccccc3o2)oc1N,3.89 µM,59 µM,3.69 µM,16.9 µM,1.89 µM,4.76 µM,4.4 µM,28.9 µM,3.58 µM,14 µM,3.18 µM,11.3 µM
Cc1cc(NC(=S)SCc2ccc(F)cc2)c([N+](=O)[O-])cc1C,,> 100 µM,,73.2 µM,,34.6 µM,,> 100 µM,,59.1 µM,,68.1 µM
CCc1nc(N)nc(N)c1-c1ccc(NC)c([N+](=O)[O-])c1,,> 100 µM,,> 100 µM,,> 100 µM,,> 100 µM,,> 100 µM,,37.7 µM
